According to the supplement of paper PMC10307832:

Assays:
Test in all cases: relative viability (nuclei count vs DMSO), 5 days (fraction); higher = more cells survive
BEN = test system: BEN
Procedure, shortened: (§1)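 For relative viability, nuclei counts in treated wells were divided by those in vehicle wells. Lung cancer cell lines had been pin-tool dosed in 1536-well plates the day after seeding and cultured for 5 days, then fixed and stained in one step (final 0.05% Triton X-100, 1% formaldehyde, 1 ug/ml Hoechst) and imaged at 4×. Doses were one drug alone or a fixed anchor-drug dose plus five library-drug doses (not always all listed) in √10 steps, and values are duplicate-plate medians.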

ChaGo-K-1 = test system: ChaGo-K-1
Procedure, shortened: as §1

HCC-78 = test system: HCC-78
Procedure, shortened: as §1

LC-2-ad = test system: LC-2-ad
Procedure, shortened: as §1

LCLC-97TM1 = test system: LCLC-97TM1
Procedure, shortened: as §1

LK-2 = test system: LK-2
Procedure, shortened: as §1

LU99A = test system: LU99A
Procedure, shortened: as §1

LXF-289 = test system: LXF-289
Procedure, shortened: as §1

NCI-H1355 = test system: NCI-H1355
Procedure, shortened: as §1

NCI-H1651 = test system: NCI-H1651
Procedure, shortened: as §1

NCI-H1666 = test system: NCI-H1666
Procedure, shortened: as §1

NCI-H1944 = test system: NCI-H1944
Procedure, shortened: as §1

NCI-H1975 = test system: NCI-H1975
Procedure, shortened: as §1

NCI-H2087 = test system: NCI-H2087
Procedure, shortened: as §1

NCI-H2342 = test system: NCI-H2342
Procedure, shortened: as §1

NCI-H358 = test system: NCI-H358
Procedure, shortened: as §1

NCI-H596 = test system: NCI-H596
Procedure, shortened: as §1

NCI-H650 = test system: NCI-H650
Procedure, shortened: as §1

NCI-H661 = test system: NCI-H661
Procedure, shortened: as §1

NCI-H838 = test system: NCI-H838
Procedure, shortened: as §1

PC-3 [JPC-3] = test system: PC-3 [JPC-3]
Procedure, shortened: as §1

SK-MES-1 = test system: SK-MES-1
Procedure, shortened: as §1

SMILES: COc1cc2nccc(Oc3ccc(NC(=O)Nc4cc(C)on4)c(Cl)c3)c2cc1OC [Tivozanib] + COc1cc2c(Oc3ccc(NC(=O)C4(C(=O)Nc5ccc(F)cc5)CC4)cc3F)ccnc2cc1OCCCN1CCOCC1 [Foretinib] (partner 0.25 µM)
- relative viability (BEN; first compound 0.005 µM): 0.559
- relative viability (BEN; first compound 0.01581 µM): 0.789
- relative viability (BEN; first compound 0.05 µM): 0.731
- relative viability (BEN; first compound 0.1581 µM): 0.25
- relative viability (BEN; first compound 0.5 µM): 0.456
- relative viability (ChaGo-K-1; first compound 0.005 µM): 0.841
- relative viability (ChaGo-K-1; first compound 0.01581 µM): 0.914
- relative viability (ChaGo-K-1; first compound 0.05 µM): 0.869
- relative viability (ChaGo-K-1; first compound 0.1581 µM): 0.889
- relative viability (ChaGo-K-1; first compound 0.5 µM): 0.86
- relative viability (HCC-78; first compound 0.005 µM): 0.539
- relative viability (HCC-78; first compound 0.01581 µM): 0.543
- relative viability (HCC-78; first compound 0.05 µM): 0.534
- relative viability (HCC-78; first compound 0.1581 µM): 0.556
- relative viability (HCC-78; first compound 0.5 µM): 0.546
- relative viability (LC-2-ad; first compound 0.005 µM): 0.917
- relative viability (LC-2-ad; first compound 0.01581 µM): 1.02
- relative viability (LC-2-ad; first compound 0.05 µM): 0.857
- relative viability (LC-2-ad; first compound 0.1581 µM): 0.972
- relative viability (LC-2-ad; first compound 0.5 µM): 0.788
- relative viability (LCLC-97TM1; first compound 0.005 µM): 0.904
- relative viability (LCLC-97TM1; first compound 0.01581 µM): 0.939
- relative viability (LCLC-97TM1; first compound 0.05 µM): 0.92
- relative viability (LCLC-97TM1; first compound 0.1581 µM): 0.982
- relative viability (LCLC-97TM1; first compound 0.5 µM): 0.928
- relative viability (LK-2; first compound 0.005 µM): 1.36
- relative viability (LK-2; first compound 0.01581 µM): 1.09
- relative viability (LK-2; first compound 0.05 µM): 1.18
- relative viability (LK-2; first compound 0.1581 µM): 1.1
- relative viability (LK-2; first compound 0.5 µM): 1.02
- relative viability (LU99A; first compound 0.005 µM): 0.663
- relative viability (LU99A; first compound 0.01581 µM): 0.747
- relative viability (LU99A; first compound 0.05 µM): 0.836
- relative viability (LU99A; first compound 0.1581 µM): 0.653
- relative viability (LU99A; first compound 0.5 µM): 0.812
- relative viability (LXF-289; first compound 0.005 µM): 0.945
- relative viability (LXF-289; first compound 0.01581 µM): 0.933
- relative viability (LXF-289; first compound 0.05 µM): 0.999
- relative viability (LXF-289; first compound 0.1581 µM): 0.986
- relative viability (LXF-289; first compound 0.5 µM): 0.963
- relative viability (NCI-H1355; first compound 0.005 µM): 0.937
- relative viability (NCI-H1355; first compound 0.01581 µM): 0.978
- relative viability (NCI-H1355; first compound 0.05 µM): 0.975
- relative viability (NCI-H1355; first compound 0.1581 µM): 0.929
- relative viability (NCI-H1355; first compound 0.5 µM): 0.966
- relative viability (NCI-H1651; first compound 0.005 µM): 0.784
- relative viability (NCI-H1651; first compound 0.01581 µM): 0.78
- relative viability (NCI-H1651; first compound 0.05 µM): 0.842
- relative viability (NCI-H1651; first compound 0.1581 µM): 0.645
- relative viability (NCI-H1651; first compound 0.5 µM): 0.831
- relative viability (NCI-H1666; first compound 0.005 µM): 0.973
- relative viability (NCI-H1666; first compound 0.01581 µM): 0.971
- relative viability (NCI-H1666; first compound 0.05 µM): 1.04
- relative viability (NCI-H1666; first compound 0.1581 µM): 0.963
- relative viability (NCI-H1666; first compound 0.5 µM): 0.999
- relative viability (NCI-H1944; first compound 0.005 µM): 0.918
- relative viability (NCI-H1944; first compound 0.01581 µM): 0.854
- relative viability (NCI-H1944; first compound 0.05 µM): 0.926
- relative viability (NCI-H1944; first compound 0.1581 µM): 0.924
- relative viability (NCI-H1944; first compound 0.5 µM): 0.931
- relative viability (NCI-H1975; first compound 0.005 µM): 0.938
- relative viability (NCI-H1975; first compound 0.01581 µM): 0.967
- relative viability (NCI-H1975; first compound 0.05 µM): 1.04
- relative viability (NCI-H1975; first compound 0.1581 µM): 0.965
- relative viability (NCI-H1975; first compound 0.5 µM): 0.918
- relative viability (NCI-H2087; first compound 0.005 µM): 1.04
- relative viability (NCI-H2087; first compound 0.01581 µM): 1.12
- relative viability (NCI-H2087; first compound 0.05 µM): 1.11
- relative viability (NCI-H2087; first compound 0.1581 µM): 0.957
- relative viability (NCI-H2087; first compound 0.5 µM): 0.998
- relative viability (NCI-H2342; first compound 0.005 µM): 0.96
- relative viability (NCI-H2342; first compound 0.01581 µM): 1.11
- relative viability (NCI-H2342; first compound 0.05 µM): 1.11
- relative viability (NCI-H2342; first compound 0.5 µM): 1.05
- relative viability (NCI-H358; first compound 0.005 µM): 0.571
- relative viability (NCI-H358; first compound 0.01581 µM): 0.672
- relative viability (NCI-H358; first compound 0.05 µM): 0.732
- relative viability (NCI-H358; first compound 0.1581 µM): 0.639
- relative viability (NCI-H358; first compound 0.5 µM): 0.716
- relative viability (NCI-H596; first compound 0.005 µM): 0.697
- relative viability (NCI-H596; first compound 0.01581 µM): 0.915
- relative viability (NCI-H596; first compound 0.05 µM): 0.846
- relative viability (NCI-H596; first compound 0.5 µM): 0.879
- relative viability (NCI-H650; first compound 0.005 µM): 1
- relative viability (NCI-H650; first compound 0.01581 µM): 1.02
- relative viability (NCI-H650; first compound 0.05 µM): 0.994
- relative viability (NCI-H650; first compound 0.1581 µM): 1.02
- relative viability (NCI-H650; first compound 0.5 µM): 0.928
- relative viability (NCI-H661; first compound 0.005 µM): 1
- relative viability (NCI-H661; first compound 0.01581 µM): 0.997
- relative viability (NCI-H661; first compound 0.05 µM): 1.03
- relative viability (NCI-H661; first compound 0.1581 µM): 0.806
- relative viability (NCI-H661; first compound 0.5 µM): 0.987
- relative viability (NCI-H838; first compound 0.005 µM): 1.06
- relative viability (NCI-H838; first compound 0.01581 µM): 0.952
- relative viability (NCI-H838; first compound 0.05 µM): 1.05
- relative viability (NCI-H838; first compound 0.5 µM): 1.03
- relative viability (PC-3 [JPC-3]; first compound 0.005 µM): 1.01
- relative viability (PC-3 [JPC-3]; first compound 0.01581 µM): 1.07
- relative viability (PC-3 [JPC-3]; first compound 0.05 µM): 1.07
- relative viability (PC-3 [JPC-3]; first compound 0.1581 µM): 1.06
- relative viability (PC-3 [JPC-3]; first compound 0.5 µM): 1.01
- relative viability (SK-MES-1; first compound 0.005 µM): 0.862
- relative viability (SK-MES-1; first compound 0.01581 µM): 0.974
- relative viability (SK-MES-1; first compound 0.05 µM): 1.01
- relative viability (SK-MES-1; first compound 0.1581 µM): 0.981
- relative viability (SK-MES-1; first compound 0.5 µM): 0.924
